The target in one data set is MAPK11 (Homo sapiens, UniProt Q15759). The data set is described as follows: Enzyme assay against MAPK11 (mobility shift assay). As to conditions: for IC50: mobility shift assay, mean ± SD of at least two independent determinations, read-out: MAPK11 Enzyme Inhibitory Activity IC50. It is filed as biochemical.
For the next data set, the system named is MAPK14. As to conditions: cited from earlier work.

Read-outs that look alike come from different tables or passages of the source. Where only a bound is given, the exact number is not on record here.

Chain of MAPK11 (Q15759 whole entry): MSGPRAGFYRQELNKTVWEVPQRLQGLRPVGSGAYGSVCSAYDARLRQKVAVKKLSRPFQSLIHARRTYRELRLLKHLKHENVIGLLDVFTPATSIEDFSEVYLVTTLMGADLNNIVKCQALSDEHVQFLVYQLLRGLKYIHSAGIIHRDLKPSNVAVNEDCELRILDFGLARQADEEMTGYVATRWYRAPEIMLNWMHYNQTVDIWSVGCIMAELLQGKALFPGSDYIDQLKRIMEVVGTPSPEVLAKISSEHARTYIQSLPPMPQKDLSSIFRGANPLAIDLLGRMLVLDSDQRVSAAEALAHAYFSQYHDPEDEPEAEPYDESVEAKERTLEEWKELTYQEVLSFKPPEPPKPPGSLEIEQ
Protocol for MAPK11: The effect of the above synthesized inhibitors on MAPK11 kinase activity in vitro was assessed using mobility shift assay by ChemPartner. Following the kinase reaction, a part of the substrate was added to a phosphate group under the action of the kinase to yield a product. The substrate and the product have a difference of 3 charges, thereby allowing them to be separated and detected by capillary electrophoresis. […] Finally, the data was fitted to the XLFit Excel plug-in version 5.4.0.8 to calculate the IC50 value.

As to `O=C1c2ccc(Nc3ccc(F)cc3F)cc2CCc2ccc(OC[C@H](O)CO)cc21` [Compound 12a, reference compound], the IC50 at MAPK11 is 19.2 ± 0.9 nM; with MAPK14 it was 5 nM. Regarding `Cc1cc(OC[C@H](O)CO)cc2c1CCc1cc(Nc3ccc(F)cc3F)ccc1C2=O` [Compound 12b], the melting point fell in the range of 135.1 to 135.8 °C. Moreover, the IC50 at MAPK11 was 14.5 ± 0.3 nM. Consider `O=C1c2ccc(Nc3ccc(F)cc3F)cc2CCc2ccc(OC[C@@H](O)CO)cc21` [Compound 12c], for which the IC50 at MAPK11 is 32 ± 0.6 nM. Turning to `O=C1c2ccc(Nc3ccc(F)cc3F)cc2CCc2ccc(OCCCO)cc21` [Compound 12d], the IC50 at MAPK11 worked out at 25.9 ± 0.7 nM.

On to `Cc1cc(OCCCO)cc2c1CCc1cc(Nc3ccc(F)cc3F)ccc1C2=O` [Compound 12e], for which the melting point is 127.2 to 127.7 °C. The IC50 on MAPK11 is 16.4 ± 0.6 nM.

`COC(=O)CCCOc1ccc2c(c1)C(=O)c1ccc(Nc3ccc(F)cc3F)cc1CC2` [Compound 12f] yielded a melting point of 124.6 to 125 °C. Also, at MAPK11 (ester 12f vs carboxylic acid 13a), the “decrease in potency against MAPK11 relative to 13a” value is listed as “about 10 fold”. On MAPK11, the IC50 was determined as 61 ± 2.1 nM.

As for `O=C(O)CCCOc1ccc2c(c1)C(=O)c1ccc(Nc3ccc(F)cc3F)cc1CC2` [Compound 13a], the IC50 at MAPK11 was 6.4 ± 0.6 nM. In addition, on MAPK11 (ratio of IC50 values vs 12a), the “fold more potent than 12a (skepinone-L) against MAPK11” value is reported as 3 fold. In the case of `Cc1cc(OCCCC(=O)O)cc2c1CCc1cc(Nc3ccc(F)cc3F)ccc1C2=O` [Compound 13b, 4-((8-((2,4-difluorophenyl)amino)-1-methyl-5-oxo-10,11-dihydro-5H-dibenzo [a,d][7]annulen-3-yl)oxy)butanoic acid], the melting point fell in the range of 120.4 to 120.6 °C. In addition, the IC50 on MAPK11 was found to be 4.2 ± 0.1 nM. The like results for `O=C1c2ccc(Nc3ccc(F)cc3F)cc2CCc2ccc(OC3CC(C(=O)O)C3)cc21` (stereo not drawn) [Compound 13c] were, in that order, 145.3 to 145.9 °C and 14.3 ± 0.6 nM.

In the case of `NC(=O)CCCOc1ccc2c(c1)C(=O)c1ccc(Nc3ccc(F)cc3F)cc1CC2` [Compound 14a], at MAPK11, the IC50 amounted to 8.4 ± 0.1 nM. Take `O=S(=O)(c1ccc(Nc2ccc(F)cc2F)cc1)c1cccc(OC[C@H](O)CO)c1` [Compound 23b]: the melting point was 135.9 to 136.6 °C. The IC50 on MAPK11 was > 10000 nM.

`O=S(=O)(c1ccc(Nc2ccc(F)cc2F)cc1)c1cccc(OC[C@@H](O)CO)c1` [Compound 23c] gave a melting point of 136.3 to 136.7 °C. Also, the IC50 on MAPK11 was > 10000 nM. In turn, `COC(=O)CCCOc1cccc(S(=O)(=O)c2ccc(Nc3ccc(F)cc3F)cc2)c1` [Compound 23d] gave a melting point of 126.8 to 127.4 °C. Turning to `O=C(O)CCCOc1cccc([S+]([O-])c2ccc(Nc3ccc(F)cc3F)cc2)c1` (stereo not drawn) [Compound 25], at MAPK11, the “decrease in potency against MAPK11 compared to dibenzocycloheptanone compounds” value is “more than a hundred-fold decrease” and the IC50 was found to be 2550 ± 682 nM. Molecule `O=C(O)CCCOc1cccc(S(=O)(=O)c2ccc(Nc3ccc(F)cc3F)cc2)c1` [Compound 26] had a melting point of 132.6 to 133.1 °C. Further, the concentration for half-maximal inhibition (IC50) at MAPK11 was > 10000 nM. `CC(C)(C)Cn1c(N)nc2ccc(-c3[nH]c(C(C)(C)C)nc3-c3ccc(F)cc3)nc21` [LY2228820]: in the data set on MAPK14 (Figure 1), the IC50 is 5.3 nM. In the case of `Oc1ccc(-c2nc(-c3ccncc3)c(-c3ccc(F)cc3)[nH]2)cc1` [SB202190], the IC50 in the data set on MAPK14 (Figure 1) was […]. As for `O=c1ncn2nc(Sc3ccc(F)cc3F)ccc2c1-c1c(Cl)cccc1Cl` [VX-745], in the data set on MAPK14 (Figure 1), the 50% inhibitory concentration (IC50) is […].
